In patent publication US20090013417A1, “Transgenic Animals for Assessing Drug Metabolism and Toxicity in Man” (IMPERIAL CANCER RESEARCH TECHNOLOGY LIMITED, priority 2004, published 2009):

Tests used:
[1] = blood midazolam concentrations after oral midazolam in wild-type, HRN and Ad-3A4/red virus-infected HRN mice; conditions: oral 2.5 mg/kg midazolam
[2] = test system: Chinese Hamster Ovary (CHO) cell line transfected with human cytochrome P450 2D6 (CYP2D6); assay: metabolism of midazolam or bufuralol in CHO cells transfected with human CYP2D6, with or without Ad-3A4/red infection; conditions: CHO/2D6 cells uninfected or infected with control Ad-GFP; 10 μM, four hours

For `Cc1ncc2n1-c1ccc(Cl)cc1C(c1ccccc1F)=NC2` [midazolam], the peak midazolam concentration ([1]; HRN mice infected with Ad-3A4/red virus (72 h before)) was 109 ng/mL, the “circulating midazolam concentration, peak value” ([1]; non-infected HRN mice) was 260 ng/mL and the “time circulating midazolam remained detectable” value ([1]; non-infected HRN mice) was > 6 h. The “circulating midazolam concentration, peak value” ([1]; wild-type mice) was 128 ng/mL, the “time until circulating midazolam became undetectable again” value ([1]; wild-type mice) was ≤ 3 h and the “midazolam metabolism (1'-hydroxymidazolam formation)” value [2] was “extremely slow”.
